{"source": "paper PMC6099663", "about": "“Structure–Activity Relationship of the Tyrosinase Inhibitors Kuwanon G, Mulberrofuran G, and Albanol B from Morus Species: A Kinetics and Molecular Docking Study” (Molecules : A Journal of Synthetic Chemistry and Natural …, 2018)", "key": {"mushroom tyrosinase [1]": {"molecular_target": "T1, mushroom tyrosinase (Agaricus bisporus, UniProt C7FF04)", "T1 sequence (C7FF04 2-392)": "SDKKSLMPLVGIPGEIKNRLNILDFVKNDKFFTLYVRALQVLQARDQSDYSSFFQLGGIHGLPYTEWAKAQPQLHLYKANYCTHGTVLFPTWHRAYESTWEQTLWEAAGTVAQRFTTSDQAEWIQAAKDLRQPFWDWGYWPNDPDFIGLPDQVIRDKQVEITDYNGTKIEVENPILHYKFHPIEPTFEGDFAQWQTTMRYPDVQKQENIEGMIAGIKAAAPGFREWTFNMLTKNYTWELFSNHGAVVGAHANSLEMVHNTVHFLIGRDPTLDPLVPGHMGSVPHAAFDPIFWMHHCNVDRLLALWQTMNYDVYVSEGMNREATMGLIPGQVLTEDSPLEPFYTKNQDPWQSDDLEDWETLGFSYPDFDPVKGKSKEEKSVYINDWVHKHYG", "assay": "Mushroom tyrosinase inhibitory assay, L-tyrosine oxidation (monophenolase activity)", "format": "biochemical", "set-up": "purchased Sigma-Aldrich Co. (St. Louis, MO, USA)", "method": "(§1) Briefly, 10 µL of a specified concentration of each sample solution (1–500 µg/mL) in 10% dimethyl sulfoxide and 20 µL of mushroom tyrosinase (1000 Units/mL) in a 50 mM phosphate buffer (pH 6.5) were added to 170 µL of an assay mixture in a 96-well microplate. […] The reaction mixtures were incubated at 25 °C for 15 s. The absorbance of the mixture at 490 nm was measured using a microplate reader. […] One unit (U) of enzymatic activity referred to the amount of an enzyme capable of converting 1 µM of the L-tyrosine/L-DOPA reaction mixture within 1 min at 280 nm under the specific conditions (25 °C, optimum conditions)."}, "mushroom tyrosinase [2]": {"molecular_target": "T1, mushroom tyrosinase", "assay": "Mushroom tyrosinase inhibitory assay, L-DOPA oxidation (diphenolase activity)", "format": "biochemical", "set-up": "purchased Sigma-Aldrich Co. (St. Louis, MO, USA)", "settings": "L-DOPA substrate (diphenolase), 25 °C, pH 6.5, mean ± SEM of triplicate", "method": "as §1"}, "tyrosinase": {"system": "tyrosinase", "settings": "cited from earlier work"}, "mushroom tyrosinase [3]": {"molecular_target": "mushroom tyrosinase", "set-up": "method as in ref 13 (Chaita et al.)", "settings": "L-DOPA substrate; ref 13 (Chaita et al.); read-out: IC50, mushroom tyrosinase via the L-DOPA pathway; cited from earlier work"}, "mushroom tyrosinase [4]": {"molecular_target": "mushroom tyrosinase", "set-up": "method as in ref 12 (Zheng et al.)", "settings": "L-tyrosine substrate; ref 12 (Zheng et al.); read-out: IC50, L-tyrosine oxidation (monophenolase); cited from earlier work"}, "mushroom tyrosinase [5]": {"molecular_target": "T1, mushroom tyrosinase", "assay": "Enzyme kinetic analysis with tyrosinase (Lineweaver-Burk and Dixon plots, L-tyrosine substrate)", "format": "biochemical", "settings": "for Inhibition Mode: Lineweaver–Burk plot, L-tyrosine substrate (monophenolase)", "method": "Kinetic analysis was employed to verify the inhibitory activity of the active compounds and identify the type of inhibition. KG and MG were potent tyrosinase inhibitors as analyzed by Lineweaver–Burk and Dixon plots (Figure 3 and Figure 4). Different concentrations of the substrate (L-tyrosine, 1.0, 0.5, and 0.25 mM) along with the various concentrations of KG (10, 50, and 100 µM) and MG ([…]) were analyzed. […] The Ki values represent the concentrations required to form an enzyme inhibitor complex, so inhibitors with lower Ki values indicate greater tyrosinase inhibition activity for the development of prophylactic and therapeutic agents.\nWe observed the sample activity by decreasing the L-tyrosine (1.0, 0.5, and 0.25 mM) substrate concentration to determine the tyrosinase inhibitory mechanism. The reaction mixture consisted of a 20 µL test sample at the following test concentrations: 1.6, 8, and 16 µM for MG; 10, 50, and 100 µM for KG. Tyrosinase inhibition was determined at various concentrations of L-tyrosine substrate (1.0, 0.5, and 0.25 mM) in the absence or presence of the test compound concentrations (1.6, 8, and 16 µM for MG; 10, 50, and 100 µM for KG) using Lineweaver-Burk double reciprocal plots that determine enzyme kinetic parameters including Km and Vmax. The enzymatic procedures consisted of the previously described tyrosinase assay methods. The inhibition constant (Ki) was determined from the interpretation of Dixon plots."}, "B16F10 cells": {"system": "B16F10 cells", "set-up": "method as in PMID 25819153", "settings": "150 µM; cited from earlier work"}, "[6]": {"settings": "L-tyrosine substrate (monophenolase), 25 °C, pH 6.5, mean ± SEM of triplicate, read-out: IC50 (μM) Value L-Tyrosine"}, "[7]": {"settings": "read-out: IC50 (μM) Value L-DOPA"}}, "note": "Read-outs that look alike come from different tables or passages of the source."}
{"smiles": "CC1=CCCCC1", "note": "[1-Methyl-1-cyclohexene, reference compound]", "values": [{"measurement": "IC50", "setting": "mushroom tyrosinase [1]; [6]", "value": "> 1000", "unit": "µM"}, {"measurement": "IC50", "setting": "mushroom tyrosinase [2]; [7]", "value": "> 1000", "unit": "µM"}]}
{"smiles": "Cc1cc2c3c(c1)-c1c(O)cc(-c4cc5ccc(O)cc5o4)cc1OC3(c1ccc(O)cc1O)Oc1cc(O)ccc1-2", "note": "(centres unmarked) [Albanol B]", "values": [{"measurement": "IC50 (μM) Value L-Tyrosine", "setting": "mushroom tyrosinase [1]; L-tyrosine substrate (monophenolase), 25 °C, pH 6.5, mean ± SEM of triplicate", "value": "inactive"}, {"measurement": "IC50", "setting": "mushroom tyrosinase [1]; [6]", "value": "> 350", "unit": "µM"}, {"measurement": "IC50 (μM) Value L-DOPA", "setting": "mushroom tyrosinase [2]", "value": "inactive"}, {"measurement": "IC50", "setting": "mushroom tyrosinase [2]; [7]", "value": "> 350", "unit": "µM"}]}
{"smiles": "O=C(O)/C=C/c1ccccc1", "note": "[Cinnamic acid]", "values": [{"measurement": "inhibition type toward tyrosinase", "setting": "tyrosinase; interacted with secondary binding sites when catalytic pocket occupied with tropolone, ref 34 (Hassani et al.)", "value": "mixed type inhibitor"}]}
{"smiles": "O=c1cc(CO)occ1O", "note": "[Kojic acid]", "values": [{"measurement": "inhibition type toward tyrosinase", "setting": "tyrosinase", "value": "selective competitive inhibitor"}]}
{"smiles": "CC(C)=CCc1c(-c2ccc(O)cc2O)oc2c(C3C=C(C)CC(c4ccc(O)cc4O)C3C(=O)c3ccc(O)cc3O)c(O)cc(O)c2c1=O", "note": "(centres unmarked) [Kuwanon G]", "values": [{"measurement": "IC50", "setting": "mushroom tyrosinase [1]", "value": "67.6 ± 2.11", "unit": "µM"}, {"measurement": "IC50", "setting": "mushroom tyrosinase [2]; IC50 (μM) Value L-DOPA", "value": 44, "unit": "µM"}, {"measurement": "IC50", "setting": "mushroom tyrosinase [3]", "value": 27.2, "unit": "µM"}, {"measurement": "IC50", "setting": "mushroom tyrosinase [4]", "value": "> 200", "unit": "µM"}, {"measurement": "Ki", "setting": "mushroom tyrosinase [5]", "value": 18.7, "unit": "µM"}, {"measurement": "Inhibition Mode", "setting": "mushroom tyrosinase [5]", "value": "Competitive"}]}
{"smiles": "CC1=C[C@H]2c3c(O)cc(-c4cc5ccc(O)cc5o4)cc3O[C@@]3(c4ccc(O)cc4O)Oc4cc(O)ccc4[C@H](C1)[C@@H]23", "note": "[Mulberrofuran G]", "values": [{"measurement": "IC50", "setting": "mushroom tyrosinase [1]; [6]", "value": "6.35 ± 0.45", "unit": "µM"}, {"measurement": "IC50", "setting": "mushroom tyrosinase [2]; [7]", "value": 106, "unit": "µM"}, {"measurement": "IC50", "setting": "mushroom tyrosinase [4]", "value": 17.5, "unit": "µM"}, {"measurement": "Ki", "setting": "mushroom tyrosinase [5]; Dixon plot, L-tyrosine substrate, read-out: Inhibition Constant (Ki)", "value": 5.19, "unit": "µM"}, {"measurement": "Inhibition Mode", "setting": "mushroom tyrosinase [5]", "value": "Competitive"}]}
{"smiles": "C=C1CC/C=C(\\C)CC[C@@H]2[C@@H]1CC2(C)C", "note": "[β-caryophyllene]", "values": [{"measurement": "intracellular tyrosinase activity", "setting": "B16F10 cells", "value": "decreased"}]}
